Assay results taken from patent publication US5990146A, “Benzimidazoles for inhibiting protein tyrosine kinase mediated cellular proliferation” (Warner-Lambert Company, priority 1998, dated 1999).
pIC50: −log10 of the molar value. Counter-ions that a name gives are not always drawn.

Columns and labels:
[1] = target: T1, insulin receptor (INSr) (Homo sapiens, UniProt P06213); assay: Insulin receptor kinase assay; format: biochemical; conditions: Table 1; as for EGF receptor with 10 mM manganese chloride
T1 construct: An assay using the intracellular kinase domains of insulin receptor (INSr) is performed
T1 sequence (P06213 1023-1298 limits assumed, species assumed): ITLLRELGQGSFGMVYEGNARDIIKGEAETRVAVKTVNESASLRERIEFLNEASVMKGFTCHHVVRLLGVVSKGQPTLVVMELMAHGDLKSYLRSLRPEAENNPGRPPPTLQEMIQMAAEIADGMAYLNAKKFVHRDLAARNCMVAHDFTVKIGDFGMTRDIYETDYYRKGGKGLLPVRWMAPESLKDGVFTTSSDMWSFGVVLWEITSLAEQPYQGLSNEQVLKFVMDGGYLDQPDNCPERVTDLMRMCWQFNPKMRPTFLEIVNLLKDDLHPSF

[2] = target: T2, Human EGF receptor tyrosine kinase (Homo sapiens, UniProt P00533); assay: EGFr tyrosine kinase assay; format: biochemical; conditions: Table 1; 10 μM ATP, 25° C., 10 minutes
T2 construct: Human EGF receptor tyrosine kinase is isolated from A431 human epidermoid carcinoma cells; endogenous in cells; host or cells: A431 human epidermoid carcinoma cells (detergent lysate, fast Q sepharose fractions)
T2 sequence (P00533 25-1210): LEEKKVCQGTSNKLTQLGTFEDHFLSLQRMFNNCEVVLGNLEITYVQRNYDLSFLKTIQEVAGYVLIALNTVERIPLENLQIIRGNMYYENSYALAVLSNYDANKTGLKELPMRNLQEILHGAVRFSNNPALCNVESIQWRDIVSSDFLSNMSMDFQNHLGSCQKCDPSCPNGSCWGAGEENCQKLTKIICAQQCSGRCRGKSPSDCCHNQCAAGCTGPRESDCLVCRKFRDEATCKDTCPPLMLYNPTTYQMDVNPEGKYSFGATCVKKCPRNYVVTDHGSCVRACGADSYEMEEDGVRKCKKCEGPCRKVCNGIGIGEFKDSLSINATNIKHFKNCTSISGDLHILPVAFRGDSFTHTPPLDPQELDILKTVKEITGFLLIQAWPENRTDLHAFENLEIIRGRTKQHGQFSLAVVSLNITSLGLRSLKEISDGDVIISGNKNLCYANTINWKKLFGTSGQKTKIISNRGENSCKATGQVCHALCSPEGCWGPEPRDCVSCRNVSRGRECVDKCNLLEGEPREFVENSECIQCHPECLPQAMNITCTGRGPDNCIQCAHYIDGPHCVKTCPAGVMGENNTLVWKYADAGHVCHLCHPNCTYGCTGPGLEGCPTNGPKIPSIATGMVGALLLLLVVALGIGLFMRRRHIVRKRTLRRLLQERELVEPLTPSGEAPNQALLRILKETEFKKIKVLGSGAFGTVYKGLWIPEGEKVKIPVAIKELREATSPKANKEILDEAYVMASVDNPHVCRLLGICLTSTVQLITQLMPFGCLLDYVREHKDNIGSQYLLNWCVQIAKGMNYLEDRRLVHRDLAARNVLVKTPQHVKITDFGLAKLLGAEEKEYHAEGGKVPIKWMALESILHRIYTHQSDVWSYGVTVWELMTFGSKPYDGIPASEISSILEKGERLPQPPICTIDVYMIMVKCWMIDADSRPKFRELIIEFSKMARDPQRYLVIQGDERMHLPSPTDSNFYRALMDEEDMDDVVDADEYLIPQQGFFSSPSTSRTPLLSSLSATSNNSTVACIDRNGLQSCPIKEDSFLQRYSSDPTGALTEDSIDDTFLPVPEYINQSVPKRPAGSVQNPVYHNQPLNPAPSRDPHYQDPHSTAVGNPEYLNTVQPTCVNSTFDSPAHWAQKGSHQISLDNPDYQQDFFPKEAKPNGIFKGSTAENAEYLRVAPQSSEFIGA

[3] = target: T3, c-Src (Homo sapiens, UniProt P12931); assay: c-Src kinase assay; format: biochemical; conditions: Table 1; 5 μM ATP, room temperature, 10 minutes
T3 construct: made in house; host or cells: baculovirus infected insect cells
T3 sequence (P12931 whole entry, species assumed): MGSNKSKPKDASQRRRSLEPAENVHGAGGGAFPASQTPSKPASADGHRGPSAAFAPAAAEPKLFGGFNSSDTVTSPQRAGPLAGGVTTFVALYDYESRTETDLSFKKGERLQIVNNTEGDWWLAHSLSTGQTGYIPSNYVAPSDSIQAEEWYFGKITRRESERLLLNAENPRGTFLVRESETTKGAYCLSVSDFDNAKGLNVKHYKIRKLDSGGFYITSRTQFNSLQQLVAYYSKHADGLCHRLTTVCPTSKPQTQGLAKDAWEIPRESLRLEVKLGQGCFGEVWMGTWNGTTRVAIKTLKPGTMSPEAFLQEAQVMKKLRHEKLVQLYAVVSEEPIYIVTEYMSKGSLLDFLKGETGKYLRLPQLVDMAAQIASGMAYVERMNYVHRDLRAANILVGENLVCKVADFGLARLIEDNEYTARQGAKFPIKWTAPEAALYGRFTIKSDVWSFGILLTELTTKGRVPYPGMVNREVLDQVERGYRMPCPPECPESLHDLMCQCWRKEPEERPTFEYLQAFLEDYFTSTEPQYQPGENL
Procedure: c-Src kinase is purified from baculovirus infected insect cell lysates using an antipeptide monoclonal antibody directed against the N-terminal 2-17 amino acids as described previously by Fry, et al, Anticancer Drug Design. 9: 331-351 (1994). […] At the end of the lysate incubation, the beads are rinsed 3 times in lysis buffer, resuspended in lysis buffer containing 10% glycerol, and frozen. These latex beads are thawed, rinsed 3 times in assay buffer which is comprised of 40 mM tris pH 7.5, 5 mM magnesium chloride, and suspended in the same buffer. […] The reaction is started at room temperature by addition of the ATP and quenched 10 minutes later by the addition of 125 μL of 30% TCA, 0.1 M sodium pyrophosphate for 15 minutes on ice. The plate is then filtered and the wells washed with two 250-μL aliquots of 15% TCA, 0.1 M pyrophosphate. The filters are punched, counted in a liquid scintillation counter, and the data examined for inhibitory activity in comparison to a known inhibitor such as erbstatin. The method is described more fully in J. Med. Chem., 37: 598-609 (1994).

[4] = target: T4, PDGF receptor tyrosine kinase (mouse PDGF-β) (Mus musculus, UniProt P05622); assay: PDGFr tyrosine kinase assay (poly glutamate-tyrosine phosphorylation); format: biochemical; conditions: Table 1; 10 minutes at 25° C.
T4 construct: PCR primers are designed to amplify a fragment of DNA that codes for the intracellular tyrosine kinase domain; made in house; host or cells: Sf9 insect cells (baculovirus), cell lysate
T4 sequence (P05622 599-961 limits assumed): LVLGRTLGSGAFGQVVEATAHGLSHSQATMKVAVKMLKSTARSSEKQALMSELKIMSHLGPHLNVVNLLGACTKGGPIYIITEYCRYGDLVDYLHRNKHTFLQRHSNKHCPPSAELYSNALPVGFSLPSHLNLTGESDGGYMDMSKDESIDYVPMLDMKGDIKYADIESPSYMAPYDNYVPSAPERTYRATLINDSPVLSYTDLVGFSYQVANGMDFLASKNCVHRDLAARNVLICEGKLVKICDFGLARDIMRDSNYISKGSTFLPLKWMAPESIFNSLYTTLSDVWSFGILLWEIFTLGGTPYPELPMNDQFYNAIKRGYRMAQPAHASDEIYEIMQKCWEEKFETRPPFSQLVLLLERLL
Procedure: Platelet Derived Growth Factor Receptor (PDGFr) and Fibroblast Growth Factor Receptor (FGFr)
Full length cDNAs for the mouse PDGF-β and human FGF-1 (flg) receptor tyrosine kinases were obtained from J. Escobedo and are prepared as described in J. Biol. Chem., 262: 1482-1487 (1991). PCR primers are designed to amplify a fragment of DNA that codes for the intracellular tyrosine kinase domain. The fragment is melded into a baculovirus vector, cotransfected with AcMNPV DNA, and the recombinant virus isolated. SF9 insect cells are infected with the virus to overexpress the protein, and the cell lysate is used for the assay.
The assay is performed in 96-well plates (100 μL/incubation/well), and conditions are optimized to measure the incorporation of ^32 p from [γ^32 P]-ATP into a glutamate-tyrosine copolymer substrate. Briefly, to each well is added 82.5 μL of incubation buffer containing 25 mM Hepes (pH 7.0), 150 mM NaCl, 0.1% Triton X-100, 0.2 mM PMSF, 0.2 mM sodium vanadate, 10 mM manganese chloride, and 750 μg/mL of poly (4:1) glutamate-tyrosine followed by 2.5 μL of inhibitor and 5 μL of enzyme lysate (7.5 μg/μL FGFR-TK or 6.0 μg/μL PDGFR-TK) to initiate the reaction. Following a 10 minute incubation at 25° C., 10 μL of [γ^32 P]-ATP (0.4 μCi plus 50 μM ATP) is added to each well and samples are incubated for an additional 10 minutes at 25° C. The reaction is terminated by the addition of 100 μL of 30% trichloroacetic acid (TCA) containing 20 mM sodium pyrophosphate and precipitation of material onto glass fiber filter mats (Wallac). Filters are washed 3 times with 15% TCA containing 100 mM sodium pyrophosphate and the radioactivity retained on the filters counted in a Wallac 1250 Betaplate reader. Nonspecific activity is defined as radioactivity retained on the filters following incubation of samples with buffer alone (no enzyme). Specific enzymatic activity is defined as total activity (enzyme plus buffer) minus nonspecific activity.

[5] = target: T5, FGF receptor tyrosine kinase (human FGF-1 (flg)) (Homo sapiens, UniProt P11362); assay: FGFr tyrosine kinase assay (poly glutamate-tyrosine phosphorylation); format: biochemical; conditions: Table 1; 10 minutes at 25° C.
T5 construct: PCR primers are designed to amplify a fragment of DNA that codes for the intracellular tyrosine kinase domain; made in house; host or cells: Sf9 insect cells (baculovirus), cell lysate
T5 sequence (P11362 478-767 limits assumed): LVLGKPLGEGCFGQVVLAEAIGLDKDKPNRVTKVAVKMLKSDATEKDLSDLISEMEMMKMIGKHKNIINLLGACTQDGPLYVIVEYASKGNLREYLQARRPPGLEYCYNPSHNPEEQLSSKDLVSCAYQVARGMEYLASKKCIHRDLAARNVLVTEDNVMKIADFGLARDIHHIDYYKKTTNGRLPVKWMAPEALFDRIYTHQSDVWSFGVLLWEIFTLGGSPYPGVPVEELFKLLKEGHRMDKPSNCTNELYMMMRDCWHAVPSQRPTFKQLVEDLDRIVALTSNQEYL
Procedure: Platelet Derived Growth Factor Receptor (PDGFr) and Fibroblast Growth Factor Receptor (FGFr) Full length cDNAs for the mouse PDGF-β and human FGF-1 (flg) receptor tyrosine kinases were obtained from J. Escobedo and are prepared as described in J. Biol. Chem., 262: 1482-1487 (1991). PCR primers are designed to amplify a fragment of DNA that codes for the intracellular tyrosine kinase domain. The fragment is […] into a baculovirus vector, cotransfected with AcMNPV DNA, and the recombinant virus isolated. SF9 insect cells are infected with the virus to overexpress the protein, and the cell lysate is used for the […] and FGFr The assay is performed in 96-well plates (100 μL/incubation/well), and conditions are optimized to measure the incorporation of ^32 p from [γ^32 P]-ATP into a glutamate-tyrosine copolymer substrate. […] The reaction is terminated by the addition of 100 μL of 30% trichloroacetic acid (TCA) containing 20 mM sodium pyrophosphate and precipitation of material onto glass fiber filter mats (Wallac). Filters are washed 3 times with 15% TCA containing 100 mM sodium pyrophosphate and the radioactivity retained on the filters counted in a Wallac 1250 Betaplate reader. Nonspecific activity is defined as radioactivity retained on the filters following incubation of samples with buffer alone (no enzyme). Specific enzymatic activity is defined as total activity (enzyme plus buffer) minus nonspecific activity.

[6] = tested on: PDGF receptor autophosphorylation in rat aorta smooth muscle cells; assay: PDGF Receptor Autophosphorylation Assay in rat aorta smooth muscle cells; format: cell-based; conditions: Table 2, PDGF-BB 30 ng/mL, 2 hours pre-incubation, read-out: IC50, inhibition of PDGF-stimulated receptor autophosphorylation
Procedure: Rat aorta smooth muscle cells (RASMC) are isolated from the thoracic aorta of rats and explanted according to the method of Ross, J. Cell. […] Cells are grown in Dulbecco's modified Eagle's medium (DMEM, Gibco) containing 10% fetal calf serum (FBS, Hyclone, Logan, Utah), 1% glutamine (Gibco) and 1% penicillin/streptomycin (Gibco). Cells are identified as smooth muscle cells by their "hill and valley" growth pattern and by fluorescent staining with a monoclonal antibody specific for SMC μ-actin (Sigma). RASMC are used between passages 5 and 20 for all experiments. Test compounds are prepared in dimethylsulfoxide (DMSO) in order to achieve consistency in the vehicle and to ensure compound solubility. Appropriate DMSO controls are simultaneously evaluated with the test compounds.
Rat aortic smooth muscle cells are grown to confluencey in 100 mm dishes. Growth medium is removed and replaced with serum-free medium and cells are incubated at 37° C. for an additional 24 hours. Test compounds are then added directly to the medium and cells incubated for an additional 2 hours. After 2 hours PDGF-BB is added at a final concentration of 30 ng/mL for 5 minutes at 37° C. to stimulate autophosphorylation of PDGF receptors. Following growth factor treatment, the medium is removed, and cells are washed with cold phosphate-buffered saline and immediately lysed with 1 mL of lysis buffer (50 mM Hepes, pH 7.5, 150 mM NaCl, 10% glycerol, 1% Triton-X 100, 1 mM EDTA, 1 mM EGTA, 50 mM NaF, 1 mM sodium orthovanadate, 30 mM p-nitrophenyl phosphate, 10 mM sodium pyrophosphate, 1 mM phenylmethyl sulfonyl fluoride, 10 μg/mL aprotinin and 10 μg/mL leupeptin). Lysates are centrifuged at 10,000 ×g for 10 minutes. […] Following the incubation, protein-A-sepharose beads are added for 2 hours with continuous mixing, and immune complexes bound to the beads washed 4 times with 1 mL lysis wash buffer. Immune complexes are solubilized in 40 μL of Laemmli sample buffer and electrophoresed in 8-16% SDS polyacrylamide gels. Following electrophoresis, separated proteins are transferred to nitrocellulose and immunoblotted with a 1:1000 dilution of antiphosphotyrosine monoclonal antibody (UBI clone 4G10; #05-321). Following extensive washing with PBS-0.2% tween-20, the blots are incubated with horseradish peroxidase labeled goat antimouse IgG (1:5000; Bio-Rad Inc, Hercules, Calif.) and protein levels are detected by enhanced chemiluminescence (ECL) detection system according to the instructions of the supplier (Amersham Inc, Arlington Heights, Ill.). The density of the protein bands are determined using NIH Image software (v. 1.56) and IC50 values are generated from the densitometric data.

Structure (SMILES) | pIC50 [1] | pIC50 [2] | pIC50 [3] | pIC50 [4] | pIC50 [5] | pIC50 [6]
c1ccc(-n2cnc3ccccc32)cc1 [Example 1, 1-Phenylbenzimidazole] | < 4.30 | < 4.30 | – | – | – | –
Nc1cccc(-n2cnc3ccccc32)c1 [Example 3, 1-(3-Aminophenyl)benzimidazole] | < 4.30 | < 4.30 | < 4.30 | 5.44 | – | –
COC(=O)c1ccc(-n2cnc3ccccc32)cc1 [Example 7, 1-(4-Carbomethoxyphenyl)benzimidazole] | < 4.30 | < 4.30 | < 4.30 | 5.14 | < 4.30 | –
Nc1ccc(-n2cnc3ccccc32)cc1 [Example 8, 1-(4-Aminophenyl)benzimidazole Dihydrochloride] | – | – | – | 5.25 | – | < 5.00
Cc1ccc2c(c1)ncn2-c1ccccc1 [Example 12, 5-Methyl-1-phenylbenzimidazole Hydrochloride] | < 4.30 | 4.30 | < 4.30 | 5.36 | < 4.30 | –
Oc1ccc2c(c1)ncn2-c1ccccc1 [Example 14, 5-Hydroxy-1-phenylbenzimidazole] | < 4.30 | < 4.30 | – | 6.40 | 5.19 | –
O=C(O)c1ccc2c(c1)ncn2-c1ccccc1 [Example 16, 1-Phenylbenzimidazole-5-carboxylic Acid Hydrochloride] | < 4.30 | < 4.30 | 4.30 | 5.03 | 4.55 | –
COC(=O)c1ccc2c(c1)ncn2-c1ccccc1 [Example 17, Methyl 1-Phenylbenzimidazole-5-carboxylate] | < 4.30 | < 4.30 | < 4.30 | 6.10 | 5.18 | –
NC(=O)c1ccc2c(c1)ncn2-c1ccccc1 [Example 18, 1-Phenylbenzimidazole-5-carboxamide Hydrochloride] | < 4.30 | < 4.30 | > 4.30 | 5.80 | 5.00 | –
Nc1ccc2c(c1)ncn2-c1ccccc1 [Example 19, 5-Amino-1-phenylbenzimidazole] | < 4.30 | < 4.30 | < 4.30 | 5.57 | 4.44 | –
O=Cc1ccc2c(c1)ncn2-c1ccccc1 [Example 21, 1-Phenylbenzimidazole-5-carboxaldehyde] | < 4.30 | > 4.30 | 4.30 | 5.08 | 4.30 | –
OCc1ccc2c(c1)ncn2-c1ccccc1 [Example 26, 5-(Hydroxymethyl)-1-phenylbenzimidazole] | < 4.30 | > 4.30 | < 4.30 | 4.93 | < 4.30 | –
CC(=O)Oc1ccc2c(c1)ncn2-c1ccccc1 [Example 27, 5-Acetoxy-1-phenylbenzimidazole] | < 4.30 | < 4.30 | < 4.30 | 5.74 | 4.59 | –
C=CCOc1ccc2c(c1)ncn2-c1ccccc1 [Example 32, 5-Allyloxy-1-phenylbenzimidazole Hydrochloride] | < 4.30 | – | < 4.30 | 6.22 | 4.46 | –
NCCOc1ccc2c(c1)ncn2-c1ccccc1 [Example 35, 5-(2-Aminoethoxy)-1-phenylbenzimidazole Dihydrochloride] | < 4.30 | – | > 4.30 | 6.15 | 4.57 | –
CN(C)CCOc1ccc2c(c1)ncn2-c1ccccc1 [Example 36, 5-[2-(N,N-Dimethylamino)ethoxy]-1-phenylbenzimidazole Dihydrochloride] | < 4.30 | – | 4.54 | 5.82 | 4.35 | –
COc1ccc2ncn(-c3ccccc3)c2c1 [Example 40, 6-Methoxy-1-phenylbenzimidazole] | – | – | – | 5.19 | – | < 5.00
Oc1ccc2ncn(-c3ccccc3)c2c1 [Example 41, 6-Hydroxy-1-phenylbenzimidazole Hydrochloride] | > 4.30 | < 4.30 | < 4.30 | 5.68 | – | –
COC(=O)c1ccc2ncn(-c3ccccc3)c2c1 [Example 43, Methyl 1-phenylbenzimidazole-6-carboxylate Hydrochloride] | < 4.30 | < 4.30 | < 4.30 | 4.89 | – | –
COC(=O)c1cc2c(cc1OC)ncn2-c1ccccc1 [Example 51, Methyl 5-methoxy-1-phenylbenzimidazole-6-carboxylate Hydrochloride] | < 4.30 | – | 4.48 | 6.05 | 4.30 | –
COc1cc2ncn(-c3ccccc3)c2cc1CO [Example 53, 6-Hydroxymethyl-5-methoxy-1-phenylbenzimidazole Hydrochloride] | < 4.30 | – | 4.30 | 6.40 | 4.92 | –
COc1ccc2c(c1)ncn2-c1cccs1 [Example 55, 5-Methoxy-1-(2-thienyl)benzimidazole Hydrochloride] | < 4.30 | – | < 4.30 | 5.60 | 5.28 | –
